Source: article PMC2784364, “VX-166: a novel potent small molecule caspase inhibitor as a potential therapy for sepsis” (Critical Care, 2009)

How the values were obtained:
[1] = test system: human aorta endothelial cells (HAEC); experiment: Apoptosis assay in human aorta endothelial cells, serum withdrawal, DNA fragmentation; assay type: cell-based; settings: Endothelial cell, Serum withdrawal and nutrient deprivation, 48 hours, n = 4, read-out: IC50, inhibition of apoptosis
Experimental: Human aorta endothelial cells (HAEC) were purchased from Cambrex Bio Science Wokingham Ltd., (Wokingham, UK) and cultured as recommended by the supplier. Apoptosis was induced in 5 × 10^4 cells/ml by addition of medium deprived of serum and growth factors. VX-166 was added at a range of concentrations as described above and the cells incubated for 48 hours at 37°C in an atmosphere of 5% CO2/95% humidity. Apoptosis was measured using a Cell Death Detection ELISA kit (Roche Diagnostics Ltd., Lewes, UK) following the manufacturer's instructions.

[2] = test system: Jurkat cells; experiment: Anti-Fas induced apoptosis in Jurkat cells, DNA fragmentation (Cell Death Detection ELISA); assay type: cell-based; settings: Human Jurkat cell line/DNA fragmentation, n = 4, read-out: IC50, inhibition of apoptosis
Experimental: (§1) Jurkat cells were obtained from LGC Standards (Teddington, UK) and were grown in RPMI 1640, 10% FCS, 2 mM L-glutamine, 100 U/ml penicillin and 0.1 mg/ml streptomycin (all from Sigma Aldrich Ltd., Poole, UK) at 37°C in 5% CO2/95% humidity. Receptor- or stress-mediated apoptosis (2 × 10^5 cells/ml) was induced by addition of either anti-Fas antibody CH-11 (10 ng/ml, Millipore UK Ltd., Watford, UK), TNF-α (20 ng/ml, R&D Systems, Abingdon, UK) with cycloheximide (112 ng/ml, Sigma Aldrich Ltd., Poole, UK) or staurosporine (350 ng/ml, Sigma Aldrich Ltd., Poole, UK). VX-166 was diluted into DMSO (10 mM), further diluted in media and added at a range of concentrations. Cells were then incubated for 18 hours. Apoptotic cells were then labelled with Cy5-conjugated Annexin-V (BD Biosciences, Oxford, UK) and detected using a FMAT™ 8100 Fluorimetric Microassay Technology Reader (Applied Biosystems, Warrington, UK). For the experiments using anti-Fas antibody, apoptosis was additionally measured using a Cell Death Detection ELISA kit (Roche Diagnostics Ltd., Lewes, UK) following the manufacturer's instructions.

[3] = test system: Sprague-Dawley rats; experiment: Caecal ligation and puncture in the rat, survival; assay type: in vivo; settings: rat CLP; for survival at day 10: control 40%
Experimental: CLP studies were performed in accordance with the National Institutes of Health guidelines for the use of experimental animals and were approved by the Institutional Animal Care and Use Committee of the Feinstein Institute for Medical Research. Adult male Sprague-Dawley rats (weighing 275 to 325 g, Charles River Laboratories, Wilmington, MA, USA) were fasted overnight then anaesthetised with isoflurane. The caecum was exposed via a 2 cm midline incision. It was ligated just distal to the ileocaecal valve, then punctured twice with an 18-gauge needle and gently squeezed to release a small amount of faecal material to ensure patency of the perforation sites before the abdominal incision was closed. Sham-operated rats underwent the same procedure with the exception that the caecum was neither ligated nor punctured. Animals received subcutaneous fluids (30 ml/kg saline) immediately after the procedure. No antibiotics were administered. In the 7 and 10 day survival studies animals were re-anaesthetised 20 hours after CLP, the perforated caecum was removed and the abdominal cavity washed twice with 40 ml of warm, sterilised saline. The abdominal cavity was closed, anaesthetics withdrawn and rats returned to their cages where they were allowed free access to food and water. In the 20 hour endpoint study the caecum was not removed. In this study blood samples were collected by cardiac puncture under terminal anaesthesia into heparinised syringes for the subsequent measurement of IL-1β and bacterial endotoxin, while the thymus was removed for analysis of thymocyte apoptosis.
Alzet® mini-osmotic pumps (Durect Corporation, Cupertino, CA, USA) were used for continuous delivery of VX-166 or vehicle (25% dimethyl sulphoxide: 75% propylene glycol). Pumps with a 2 ml reservoir capacity and a 10 μl//h delivery rate were used in all studies. These pumps are designed to deliver for seven days and so would have expired two to three days before the end of the 10 day survival studies. The mini-osmotic pumps were filled with VX-166 (5 to 25 mg/ml or vehicle) and primed overnight at 37°C prior to subcutaneous implantation in anaesthetised rats. The 25 mg/ml concentration of VX-166 equates to an approximate dose of 0.83 mg/kg/h for a 300 g rat. The pumps were implanted immediately following CLP, except in the delayed onset of treatment study in which pumps were implanted either immediately following CLP (0 hour) or 3 or 8 hours following CLP. Sham-operated rats were implanted with vehicle filled mini-osmotic pumps.

[4] = biological target: T1, granzyme B (Homo sapiens, UniProt P10144); experiment: Granzyme B counter-screen; assay type: biochemical; settings: at 50 μM
T1 construct: purchased Merck Biosciences Ltd. (Nottingham, UK)
Experimental: Active recombinant caspase-1, -3, -4, -7 and -8 were prepared as described previously. Caspase-2 was purchased from Biomol (Exeter, UK), caspase-6 from BD Biosciences (Oxford, UK), caspase-9 from Europa Bioproducts Ltd. (Cambridge, UK) and caspase-10 from Chemicon International Inc. (Harrow, UK). Cathepsin B and granzyme B were purchased from Merck Biosciences Ltd. (Nottingham, UK). Fluorogenic protease substrates were purchased from Bachem Ltd. (St. Helens, UK). All reactions were carried out at 37°C using a Molecular Devices (Wokingham, UK) Gemini plate-reader at 460 nm (excitation wavelength of 390 nm). Caspase inhibition assays were conducted, with minor modifications, as described by Margolin and colleagues. Irreversible kinetics were analysed by calculations of second-order inactivation rate constants (k) using GraphPad (La Jolla, CA, USA) Prism 4.0 software. A larger number for an inactivation rate constant indicates a greater degree of inactivation. To determine the inhibitory effect on cathepsin B, 4.25 nM of the enzyme were added to 250 μM z-RR-AMC in 10 mM 2-morpholino-ethanesulfonic acid pH 6.0, 1 mM DTT, 1 mM EDTA and 0.03% Brij35 in the presence or absence of VX-166 and the reaction monitored continuously over 15 minutes. Granzyme B was assayed, with minor modifications, as described by Thornberry and colleagues. […]

[5] = test system: Jurkat cells; experiment: TNF-α/cycloheximide induced apoptosis in Jurkat cells, Annexin V; assay type: cell-based; settings: Human Jurkat cell line/Annexin V, n = 4, read-out: IC50, inhibition of apoptosis
Experimental: as §1

T1 sequence (P10144 21-247, species assumed): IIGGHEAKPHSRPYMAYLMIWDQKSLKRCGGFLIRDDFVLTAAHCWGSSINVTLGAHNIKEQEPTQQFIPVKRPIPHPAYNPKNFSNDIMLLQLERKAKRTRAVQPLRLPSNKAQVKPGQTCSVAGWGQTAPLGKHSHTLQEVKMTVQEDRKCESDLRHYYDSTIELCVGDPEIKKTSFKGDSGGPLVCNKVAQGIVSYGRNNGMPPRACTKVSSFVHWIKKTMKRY

## CCC(C(=O)NC(CC(=O)O)C(=O)COc1c(F)c(F)cc(F)c1F)n1cccc(NC(=O)OC)c1=O (stereo not drawn) [VX-166]
[1]
  IC50: 0.31 ± 0.07 µM
[2]
  IC50: 0.045 ± 0.007 µM
[3]; 25 mg/ml mini-osmotic pump immediately after CLP, n = 16
  survival over 10 days compared with vehicle control, second study: improved survival
[3]; 25 mg/ml mini-osmotic pump implanted immediately following CLP, n = 12, control 25%
  survival at day 7: 67%
[3]; 25 mg/ml pump started 0 hours after CLP, n = 12, P = 0.026
  survival at day 10: 83%
[3]; 25 mg/ml pump started 3 hours after CLP, n = 12, P = 0.009
  survival at day 10: 92%
[3]; 25 mg/ml pump started 8 hours after CLP, n = 12, P = 0.19
  survival at day 10: 66%
[4]
  inhibitory activity against granzyme B: did not show any inhibitory activity
[5]
  IC50: 0.12 ± 0.05 µM
